These are literature values, as cited in patent US12318448B2, “Use of TLR agonist and anti-CD47 agent to enhance phagocytosis of cancer cells” (The Board of Trustees of the Leland Stanford Junior …, priority 2015, dated 2025).

The series has as its target T1, TLR7 (Homo sapiens, UniProt Q9NYK1).
T1 sequence (Q9NYK1 27-1049): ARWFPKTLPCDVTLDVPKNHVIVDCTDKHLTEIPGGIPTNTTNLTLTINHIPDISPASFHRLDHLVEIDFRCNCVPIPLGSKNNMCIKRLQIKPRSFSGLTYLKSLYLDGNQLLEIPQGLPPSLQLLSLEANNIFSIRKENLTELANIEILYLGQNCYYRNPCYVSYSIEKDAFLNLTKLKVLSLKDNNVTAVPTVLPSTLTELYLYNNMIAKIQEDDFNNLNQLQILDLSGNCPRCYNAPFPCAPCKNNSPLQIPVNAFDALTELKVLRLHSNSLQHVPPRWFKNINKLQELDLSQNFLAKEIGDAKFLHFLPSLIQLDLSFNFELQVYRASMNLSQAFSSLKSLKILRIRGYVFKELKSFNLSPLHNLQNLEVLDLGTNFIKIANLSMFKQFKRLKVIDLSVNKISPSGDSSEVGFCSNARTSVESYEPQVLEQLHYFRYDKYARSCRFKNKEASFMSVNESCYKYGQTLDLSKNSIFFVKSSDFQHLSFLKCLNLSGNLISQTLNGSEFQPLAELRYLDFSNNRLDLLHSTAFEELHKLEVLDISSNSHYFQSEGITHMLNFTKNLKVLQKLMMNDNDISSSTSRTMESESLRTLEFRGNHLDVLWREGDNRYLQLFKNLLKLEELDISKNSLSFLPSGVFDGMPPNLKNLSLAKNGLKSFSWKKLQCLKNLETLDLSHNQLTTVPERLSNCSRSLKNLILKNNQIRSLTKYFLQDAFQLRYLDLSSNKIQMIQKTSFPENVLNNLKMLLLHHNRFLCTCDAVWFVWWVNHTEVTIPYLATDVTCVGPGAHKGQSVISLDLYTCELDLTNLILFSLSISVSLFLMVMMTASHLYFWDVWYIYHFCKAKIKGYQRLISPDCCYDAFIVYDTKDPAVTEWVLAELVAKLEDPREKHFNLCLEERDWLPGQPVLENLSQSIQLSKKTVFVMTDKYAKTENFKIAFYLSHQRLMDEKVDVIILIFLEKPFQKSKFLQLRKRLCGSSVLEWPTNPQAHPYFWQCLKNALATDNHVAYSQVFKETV
To be noted: administered parenterally as monotherapy; cited from earlier work.

For `CCc1nc2c(N)nc3ccccc3c2n1CCCCNS(C)(=O)=O` [852A], the clinical efficacy entry is “modest clinical efficacy with disease stabilization”.
